Experimental data reported in ChEMBL document CHEMBL1201862, “PubChem BioAssay data set” (2004).
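In this assay, cells in 96-well plates receive the compound at five concentrations for 48 hours. Endpoints are linearly interpolated between the surrounding concentrations. GI50 marks 50% less growth.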 Activity calls are given as the source filed them. Rule as the data show it: active = GI50 up to about 1.1 µM and inactive = higher.

Experiments:
Assay in all cases: DTP human tumour cell line panel, 48 h
DU-145 = test system: DU-145
HCT-15 = test system: HCT-15
HOP-62 = test system: HOP-62
Hs-578T = test system: Hs-578T
IGROV-1 = test system: IGROV-1
K562 = test system: K562
MDA-N = test system: MDA-N
NCI-H226 = test system: NCI-H226
OVCAR-5 = test system: OVCAR-5
OVCAR-8 = test system: OVCAR-8
RPMI-8226 = test system: RPMI-8226
SF-268 = test system: SF-268
SK-MEL-28 = test system: SK-MEL-28
SK-MEL-2 = test system: SK-MEL-2
SNB-19 = test system: SNB-19
SW-620 = test system: SW-620
UACC-257 = test system: UACC-257
UO-31 = test system: UO-31
MOLT-4 = test system: MOLT-4

Structure (SMILES) | GI50 (DU-145) | GI50 (HCT-15) | GI50 (HOP-62) | GI50 (Hs-578T) | GI50 (IGROV-1) | GI50 (K562) | GI50 (MDA-N) | GI50 (NCI-H226) | GI50 (OVCAR-5) | GI50 (OVCAR-8) | GI50 (RPMI-8226) | GI50 (SF-268) | GI50 (SK-MEL-28) | GI50 (SK-MEL-2) | GI50 (SNB-19) | GI50 (SW-620) | GI50 (UACC-257) | GI50 (UO-31) | GI50 (MOLT-4)
c1cc2c(cc1C(N1CCNCC1)N1CCNCC1)OCO2 | > 100 µM (inactive) | > 100 µM | > 100 µM (inactive) | > 100 µM (inactive) | > 100 µM (inactive) | 2.42 µM (inactive) | > 100 µM (inactive) | > 100 µM (inactive) | > 100 µM (inactive) | > 100 µM (inactive) | 40.9 µM (inactive) | > 100 µM (inactive) | > 100 µM (inactive) | > 100 µM (inactive) | > 100 µM (inactive) | > 100 µM (inactive) | > 100 µM (inactive) | > 100 µM (inactive) | –
Cc1ccc(-c2cc(-c3ccco3)c(C#N)c(=S)[nH]2)cc1 | 93.5 µM (inactive) | 42 µM | > 100 µM (inactive) | 38.5 µM (inactive) | 25.7 µM (inactive) | 41 µM (inactive) | > 10 µM (inactive) | 31.5 µM (inactive) | > 100 µM (inactive) | 68.1 µM (inactive) | 35.5 µM (inactive) | 40.6 µM (inactive) | 20.8 µM (inactive) | – | 32.1 µM (inactive) | 53.3 µM (inactive) | – | 33.9 µM (inactive) | 32.2 µM (inactive)
CSc1cc(Cl)c(C)cc1S(=O)(=O)NC(=O)NNc1ccc(F)c(Cl)c1 | > 100 µM (inactive) | > 100 µM | > 100 µM (inactive) | > 100 µM (inactive) | > 100 µM (inactive) | > 100 µM (inactive) | > 100 µM (inactive) | > 100 µM (inactive) | > 100 µM (inactive) | > 100 µM (inactive) | – | > 100 µM (inactive) | > 100 µM (inactive) | > 100 µM (inactive) | > 100 µM (inactive) | > 100 µM (inactive) | – | – | 45.7 µM (inactive)
Cc1ccc(S(=O)(=O)N2CCC[C@@H]2C(=O)O[C@@H]2CCC3CC=CC32)cc1 (some centres undefined) | 45.6 µM (inactive) | 32.7 µM | 29.9 µM (inactive) | 33.3 µM (inactive) | 39.9 µM (inactive) | 14 µM (inactive) | 29.2 µM (inactive) | 19.9 µM (inactive) | 45.8 µM (inactive) | 34.4 µM (inactive) | 18.7 µM (inactive) | 15.1 µM (inactive) | 47.9 µM (inactive) | – | 34.4 µM (inactive) | 40.3 µM (inactive) | 22.2 µM (inactive) | 13.6 µM (inactive) | 17.6 µM (inactive)
CCCCCC(=O)CCCCCCCC(O)CC(=O)OCC (centres undefined) | > 100 µM (inactive) | > 100 µM | > 100 µM (inactive) | > 100 µM (inactive) | > 100 µM (inactive) | > 100 µM (inactive) | > 100 µM (inactive) | > 100 µM (inactive) | > 100 µM (inactive) | > 100 µM (inactive) | > 100 µM (inactive) | > 100 µM (inactive) | > 100 µM (inactive) | – | > 100 µM (inactive) | > 100 µM (inactive) | > 100 µM (inactive) | > 100 µM (inactive) | > 100 µM (inactive)
CC(Cn1c(=O)oc2ccccc21)N(C)C (centres undefined) | > 100 µM (inactive) | > 100 µM | > 100 µM (inactive) | > 100 µM (inactive) | > 100 µM (inactive) | > 100 µM (inactive) | > 100 µM (inactive) | > 100 µM (inactive) | > 100 µM (inactive) | > 100 µM (inactive) | > 100 µM (inactive) | > 100 µM (inactive) | > 100 µM (inactive) | > 100 µM (inactive) | > 100 µM (inactive) | > 100 µM (inactive) | > 100 µM (inactive) | – | > 100 µM (inactive)
C[n+]1c2ccccc2n2c3ccccc3c(NCCc3ccccn3)c(C#N)c21 | 2.72 µM (inactive) | 2.33 µM | 2.11 µM (inactive) | 2.81 µM (inactive) | – | 2.21 µM (inactive) | 1.64 µM (inactive) | 2.55 µM (inactive) | 2 µM (inactive) | 1.18 µM (inactive) | 1.64 µM (inactive) | 2.36 µM (inactive) | 2.32 µM (inactive) | 2.61 µM (inactive) | 3.33 µM (inactive) | 0.661 µM (active) | 3.5 µM (inactive) | 1.76 µM (inactive) | 1 µM (active)
Cc1cc2[nH]c(=NS(=O)(=O)c3cc(C)c(Cl)cc3S)[nH]c2cc1C | > 100 µM (inactive) | 73.3 µM | 23.1 µM (inactive) | > 100 µM (inactive) | 96.4 µM (inactive) | 59.7 µM (inactive) | > 100 µM (inactive) | – | > 100 µM (inactive) | 77.3 µM (inactive) | 45.9 µM (inactive) | 83.8 µM (inactive) | > 100 µM (inactive) | > 100 µM (inactive) | 56.6 µM (inactive) | 43.4 µM (inactive) | > 100 µM (inactive) | 84.5 µM (inactive) | 21.5 µM (inactive)
c1ccc2nn(C3CCCCO3)nc2c1 (centres undefined) | > 100 µM (inactive) | > 100 µM | > 100 µM (inactive) | > 100 µM (inactive) | > 100 µM (inactive) | > 100 µM (inactive) | > 100 µM (inactive) | > 100 µM (inactive) | > 100 µM (inactive) | > 100 µM (inactive) | – | > 100 µM (inactive) | – | > 100 µM (inactive) | > 100 µM (inactive) | – | > 100 µM (inactive) | > 100 µM (inactive) | > 100 µM (inactive)
N#Cc1c2c(c(N3CCOCC3)n3c1nc1ccccc13)CCCC2 | 19 µM (inactive) | 17.8 µM | – | > 100 µM (inactive) | 16.6 µM (inactive) | 25.1 µM (inactive) | 18.4 µM (inactive) | 14 µM (inactive) | 21.1 µM (inactive) | 19.2 µM (inactive) | – | > 100 µM (inactive) | 23.5 µM (inactive) | 16.5 µM (inactive) | 16.6 µM (inactive) | 14.4 µM (inactive) | 29.2 µM (inactive) | 18.4 µM (inactive) | 8.81 µM (inactive)
Brc1ccc(-c2nc(-c3ccc(Br)cc3)n(-c3ccccc3)n2)cc1 | > 100 µM (inactive) | > 100 µM | > 100 µM (inactive) | > 100 µM (inactive) | > 100 µM (inactive) | – | > 100 µM (inactive) | > 100 µM (inactive) | > 100 µM (inactive) | > 100 µM (inactive) | – | > 100 µM (inactive) | > 100 µM (inactive) | > 100 µM (inactive) | > 100 µM (inactive) | > 100 µM (inactive) | 81.1 µM (inactive) | > 100 µM (inactive) | 53.7 µM (inactive)
CCN1CCC(O)(/C=C/c2cccc(C)c2)C(C(=O)/C=C/c2cccc(C)c2)C1 (centres undefined) | 3.94 µM (inactive) | 2.25 µM | – | 2.33 µM (inactive) | 1.94 µM (inactive) | 2.98 µM (inactive) | 2.66 µM (inactive) | 2.42 µM (inactive) | 2.64 µM (inactive) | 2.87 µM (inactive) | 1.77 µM (inactive) | 1.74 µM (inactive) | 2.19 µM (inactive) | 2.31 µM (inactive) | 4.31 µM (inactive) | 2.29 µM (inactive) | 2.53 µM (inactive) | 1.69 µM (inactive) | 2.43 µM (inactive)
COc1c(OC)c(OC)c(C(=O)/C=C/c2ccccc2)c(OC)c1OC | 3.54 µM (inactive) | 10.6 µM | – | 4.32 µM (inactive) | 11.3 µM (inactive) | 4.17 µM (inactive) | 5.51 µM (inactive) | 8.05 µM (inactive) | 16.5 µM (inactive) | 10.3 µM (inactive) | 3.6 µM (inactive) | 3.69 µM (inactive) | 13.4 µM (inactive) | 12.6 µM (inactive) | 12.4 µM (inactive) | 6.95 µM (inactive) | 14.3 µM (inactive) | 10.5 µM (inactive) | 8.83 µM (inactive)
CCOC(=O)Cc1nc2sc(S(N)(=O)=O)nn2c1Br | 33.9 µM (inactive) | 23.7 µM | > 100 µM (inactive) | > 100 µM (inactive) | 28.4 µM (inactive) | 41.5 µM (inactive) | 35.1 µM (inactive) | 27.2 µM (inactive) | 22.1 µM (inactive) | 21.3 µM (inactive) | 17.3 µM (inactive) | 56.5 µM (inactive) | 33.1 µM (inactive) | 28.5 µM (inactive) | 87.7 µM (inactive) | 23.6 µM (inactive) | 29.9 µM (inactive) | 15.8 µM (inactive) | –
CN(C)c1ccc(/C=N/NC(=O)c2cnc3ccccc3c2)cc1 | 59.3 µM (inactive) | > 100 µM | 35.5 µM (inactive) | 25.5 µM (inactive) | 51.1 µM (inactive) | > 100 µM (inactive) | 4.71 µM (inactive) | > 100 µM (inactive) | > 100 µM (inactive) | 98.2 µM (inactive) | > 100 µM (inactive) | 18 µM (inactive) | > 100 µM (inactive) | > 100 µM (inactive) | 48 µM (inactive) | > 100 µM (inactive) | > 100 µM (inactive) | > 100 µM (inactive) | –
CN1CCN(C(=S)N(C)C(=O)c2cccs2)CC1 | > 100 µM (inactive) | > 100 µM | – | > 100 µM (inactive) | > 100 µM (inactive) | > 100 µM (inactive) | > 100 µM (inactive) | > 100 µM (inactive) | > 100 µM (inactive) | > 100 µM (inactive) | > 100 µM (inactive) | – | – | > 100 µM (inactive) | > 100 µM (inactive) | > 100 µM (inactive) | > 100 µM (inactive) | > 100 µM (inactive) | > 100 µM (inactive)
